Test system: HT-29 cells
Experiment: HT29 Cells 0FBS Assay In Vitro (TNF-α/SMAC mimetic/zVAD-FMK induced necroptosis, CellTiter-Glo cell viability)
Assay type: cell-based
Settings: Homo sapiens; HT-29 cells, FBS free medium, TNF-α (10 ng/ml), SMAC mimetic (6 uM), zVAD-FMK (10 μM), 20 hours; geometric mean EC50; read-out: Cell activity (EC50) of Compounds 1-116
Text: Protocol for HT29 Cells 0FBS Assay In Vitro
• Cell line: HT-29 (ATCC® HTB-38™) • Culture medium: McCOY's 5 A, Gibco, Cat No. 16600-082 • FBS, Gibco, Cat No. 10099-141C • Trypsin: Gibco, Cat No. 25200-056 • DMSO: Sigma, Cat No. 67-68-5, 1 L • Assay plate: Corning #3903 • Compound dilution plate: Corning #3357 • Inducers: TNFα, GenScript, Cat No. ZO1001-50, • SmacM, Cat. No., HY-15989, MedChemExpress (MCE) • Z_VAD FMK, TargetMol, T6013 • Cell Titer-Glo® Luminescent Cell Viability Assay Kit: Promega, Cat No. G7573 • EnVision: PerkinElmer, 2105-0010 2. Cell Seeding of HT-29 Cells • 1) HT-29 cells were checked every day to make sure they are healthy and growing as expected. They were split sub-culturing when were approximately 80% confluent. • 2) First pre-warm the culture medium of McCOY's 5 A medium (Gibco, Cat No. 16600-082) with 10% FBS (Gibco, Cat No. 10099-141C) in 37° C. water bath for at least 30 min. • 3) Growing cells to desired level of confluency 80% in a T75 flask, aspirate the medium, and wash with warm PBS two times. • 4) Add 2-3 ml fresh warm trypsin (Gibco, Cat No. 25200-056) solution. Transfer the flask to a 37° C. incubator. • 5) After 5 minutes, tap the side of the flask, and examine the flask under a microscope for lifting. If necessary, return the cells to the incubator for an additional 5-10 minutes, with occasional tapping, until lifting is complete. • 6) Quickly neutralize the trypsin reaction by adding 6-9 ml cell culture medium, then transfer the cells to sterile 15 ml conical tubes. Pellet the cells by centrifugation at 300×g for 7 minutes, then decant the supernatant. • 7) Resuspend the cells in fresh cell culture medium. Do cell counting with hemocytometer. • 8) Seed 100 μl of 5,000 cells into each well of the sterile 96-well cell culture plate (Corning 3903) and culture overnight at 37° C. with 5% C02. 3. Compounds Titration and Treatment of HT-29 Cells • 1) All batches of compounds (CPDs) (e.g., compound 1-281) were dissolved in DMSO (Dimethyl sulfoxide) as 20 mM stock solution. • 2) Take 3 ul 20 mM stock solution of CPDs to 27 ul DMSO and mix well, continue the titration ratio of 1:3 (20 ul CPDs+40 ul DMSO), e.g., to give solutions of CPDS at 6.6 mM, 2.2 mM, etc., till the 10 points end. • 3) Take out assay plates with HT-29 cells from incubator, remove all culture medium then wash 1 time with 1×PBS, and change fresh McCOY's 5 A medium of FBS free with a cocktail of TNF-α (10 ng/ml), the SMAC mimetic (6 uM) and zVAD-FMK (10 μM) to stimulate the HT-29 cells to increase pRIPK1 levels and necroptosis. • 4) Add 0.5 μL of the diluted compound to the corresponding 96-well assay plates. • 5) Incubate the assay plates for 20 hours at 37° C. with 5% C02. 4. Performing Cell Viability Detection of HT-29 Cells after Treated with Compounds • 1) The CellTiter-Glo® Luminescent Cell Viability Assay was employed to detect the ATP levels of viable HT-29 cells. • 2) Equilibrate the CellTiter-Glo® buffer and the lyophilized substrate to room temperature prior to use. • 3) Resuspend the CellTiter-Glo® substrate with CellTiter-Glo® buffer, mix by gently vortexing to obtain a homogeneous solution. • 4) Pipette 20 μl the enzyme/substrate mixture by multi-channel pipette into the 96-well assay plates from step 5) under the Compounds titration and treatment stage. • 5) Place the plates on an orbital shaker and mix the contents for 3 minutes to induce cell lysis. • 6) Then allow the plates to incubate at room temperature for 10 minutes to stabilize luminescent signal. • 7) Read and record luminescence signal with EnVision. • 8) The geometric mean EC50 of the compounds were calculated from points response dose with duplicate. In Tables 2 and 4, activity is provided as follows: +++=0.1 nM≤EC50<100 nM; ++=100 nM≤EC50<1000 nM; +=1000 nM≤EC50<10000 nM.

| Structure (SMILES) | EC50 |
| --- | --- |
| Cc1nc(C)c(-c2ncc(F)c(OC3CN(C(=O)N4N=CC[C@H]4c4cc(F)cc(F)c4)C3)n2)s1 [compound 19, (S)-(5-(3,5-difluorophenyl)-4,5-dihydro-1H-pyrazol-1-yl)(3-((2-(2,4-dimethylthiazol-5-yl)-5-fluoropyrimidin-4-yl)oxy)azetidin-1-yl)methanone] | 0.1 to 100 nM |
| Cc1noc(C)c1-c1ncc(F)c(OC2CN(C(=O)N3N=CC[C@H]3c3cc(F)cc(F)c3)C2)n1 [compound 20, (S)-(5-(3,5-difluorophenyl)-4,5-dihydro-1H-pyrazol-1-yl)(3-((2-(3,5-dimethylisoxazol-4-yl)-5-fluoropyrimidin-4-yl)oxy)azetidin-1-yl)methanone] | 0.1 to 100 nM |
| Cc1oncc1-c1ncc(F)c(OC2CN(C(=O)N3N=CC[C@H]3c3cc(F)cc(F)c3)C2)n1 [compound 21, (S)-(5-(3,5-difluorophenyl)-4,5-dihydro-1H-pyrazol-1-yl)(3-((5-fluoro-2-(5-methylisoxazol-4-yl)pyrimidin-4-yl)oxy)azetidin-1-yl)methanone] | 0.1 to 100 nM |
| Cc1nocc1-c1ncc(F)c(OC2CN(C(=O)N3N=CC[C@H]3c3cc(F)cc(F)c3)C2)n1 [compound 22, (S)-(5-(3,5-difluorophenyl)-4,5-dihydro-1H-pyrazol-1-yl)(3-((5-fluoro-2-(3-methylisoxazol-4-yl)pyrimidin-4-yl)oxy)azetidin-1-yl)methanone] | 0.1 to 100 nM |
| Cc1csnc1-c1ccc(F)c(OC2CN(C(=O)N3N=CC[C@H]3c3cc(F)cc(F)c3)C2)n1 [compound 23, (S)-(5-(3,5-difluorophenyl)-4,5-dihydro-1H-pyrazol-1-yl)(3-((3-fluoro-6-(4-methylisothiazol-3-yl)pyridin-2-yl)oxy)azetidin-1-yl)methanone] | 0.1 to 100 nM |
| Cc1nnc(-c2ccc(F)c(OC3CN(C(=O)N4N=CC[C@H]4c4cc(F)cc(F)c4)C3)n2)s1 [compound 24, (S)-(5-(3,5-difluorophenyl)-4,5-dihydro-1H-pyrazol-1-yl)(3-((3-fluoro-6-(5-methyl-1,3,4-thiadiazol-2-yl)pyridin-2-yl)oxy)azetidin-1-yl)methanone] | 0.1 to 100 nM |
| Cc1ncc(-c2ncc(F)c(OC3CN(C(=O)N4N=CC[C@H]4c4cc(F)cc(F)c4)C3)n2)s1 [compound 25, (S)-(5-(3,5-difluorophenyl)-4,5-dihydro-1H-pyrazol-1-yl)(3-((5-fluoro-2-(2-methylthiazol-5-yl)pyrimidin-4-yl)oxy)azetidin-1-yl)methanone] | 0.1 to 100 nM |
| Cc1ncc(-c2cc(OC3CN(C(=O)N4N=CC[C@H]4c4cc(F)cc(F)c4)C3)c(F)cn2)s1 [compound 26, (S)-(5-(3,5-difluorophenyl)-4,5-dihydro-1H-pyrazol-1-yl)(3-((5-fluoro-2-(2-methylthiazol-5-yl)pyridin-4-yl)oxy)azetidin-1-yl)methanone] | 0.1 to 100 nM |
| Cc1nnc(-c2ccc(F)c(OC3CN(C(=O)N4N=CCC4c4cc(F)cc(F)c4)C3)n2)o1 (centres unmarked) [compound 27, (5-(3,5-difluorophenyl)-4,5-dihydro-1H-pyrazol-1-yl)(3-((3-fluoro-6-(5-methyl-1,3,4-oxadiazol-2-yl)pyridin-2-yl)oxy)azetidin-1-yl)methanone] | 100 to 1000 nM |
| Cn1ncnc1-c1ccc(F)c(OC2CN(C(=O)N3N=CC[C@H]3c3cc(F)cc(F)c3)C2)n1 [compound 28, (S)-(5-(3,5-difluorophenyl)-4,5-dihydro-1H-pyrazol-1-yl)(3-((3-fluoro-6-(1-methyl-1H-1,2,4-triazol-5-yl)pyridin-2-yl)oxy)azetidin-1-yl)methanone] | 0.1 to 100 nM |
| Cn1ncnc1-c1cc(OC2CN(C(=O)N3N=CC[C@H]3c3cc(F)cc(F)c3)C2)c(F)cn1 [compound 29, (S)-(5-(3,5-difluorophenyl)-4,5-dihydro-1H-pyrazol-1-yl)(3-((5-fluoro-2-(1-methyl-1H-1,2,4-triazol-5-yl)pyridin-4-yl)oxy)azetidin-1-yl)methanone] | 0.1 to 100 nM |
| Cn1ncnc1-c1ncc(F)c(OC2CN(C(=O)N3N=CC[C@H]3c3cc(F)cc(F)c3)C2)n1 [compound 30, (S)-(5-(3,5-difluorophenyl)-4,5-dihydro-1H-pyrazol-1-yl)(3-((5-fluoro-2-(1-methyl-1H-1,2,4-triazol-5-yl)pyrimidin-4-yl)oxy)azetidin-1-yl)methanone] | 0.1 to 100 nM |
| Cn1cc(-c2cc(OC3CN(C(=O)N4N=CC[C@H]4c4cc(F)cc(F)c4)C3)c(F)cn2)nn1 [compound 32, (S)-(5-(3,5-difluorophenyl)-4,5-dihydro-1H-pyrazol-1-yl)(3-((5-fluoro-2-(1-methyl-1H-1,2,3-triazol-4-yl)pyridin-4-yl)oxy)azetidin-1-yl)methanone] | 0.1 to 100 nM |
| Cn1ncc(-c2cc(OC3CN(C(=O)N4N=CC[C@H]4c4cc(F)cc(F)c4)C3)c(F)cn2)n1 [compound 33, (S)-(5-(3,5-difluorophenyl)-4,5-dihydro-1H-pyrazol-1-yl)(3-((5-fluoro-2-(2-methyl-2H-1,2,3-triazol-4-yl)pyridin-4-yl)oxy)azetidin-1-yl)methanone] | 0.1 to 100 nM |
| Cn1nncc1-c1cc(OC2CN(C(=O)N3N=CC[C@H]3c3cc(F)cc(F)c3)C2)c(F)cn1 [compound 34, (S)-(5-(3,5-difluorophenyl)-4,5-dihydro-1H-pyrazol-1-yl)(3-((5-fluoro-2-(1-methyl-1H-1,2,3-triazol-5-yl)pyridin-4-yl)oxy)azetidin-1-yl)methanone] | 0.1 to 100 nM |
| Cc1cc(-c2ncc(F)c(OC3CN(C(=O)N4N=CC[C@H]4c4cc(F)cc(F)c4)C3)n2)n(C)n1 [compound 35, (S)-(5-(3,5-difluorophenyl)-4,5-dihydro-1H-pyrazol-1-yl)(3-((2-(1,3-dimethyl-1H-pyrazol-5-yl)-5-fluoropyrimidin-4-yl)oxy)azetidin-1-yl)methanone] | 0.1 to 100 nM |
| Cc1cc(-c2cc(OC3CN(C(=O)N4N=CC[C@H]4c4cc(F)cc(F)c4)C3)c(F)cn2)n(C)n1 [compound 36, (S)-(5-(3,5-difluorophenyl)-4,5-dihydro-1H-pyrazol-1-yl)(3-((2-(1,3-dimethyl-1H-pyrazol-5-yl)-5-fluoropyridin-4-yl)oxy)azetidin-1-yl)methanone] | 0.1 to 100 nM |
| Cc1nn(C)cc1-c1ncc(F)c(OC2CN(C(=O)N3N=CC[C@H]3c3cc(F)cc(F)c3)C2)n1 [compound 37, (S)-(5-(3,5-difluorophenyl)-4,5-dihydro-1H-pyrazol-1-yl)(3-((2-(1,3-dimethyl-1H-pyrazol-4-yl)-5-fluoropyrimidin-4-yl)oxy)azetidin-1-yl)methanone] | 0.1 to 100 nM |
| Cc1nn(C)cc1-c1cc(OC2CN(C(=O)N3N=CC[C@H]3c3cc(F)cc(F)c3)C2)c(F)cn1 [compound 38, (S)-(5-(3,5-difluorophenyl)-4,5-dihydro-1H-pyrazol-1-yl)(3-((2-(1,3-dimethyl-1H-pyrazol-4-yl)-5-fluoropyridin-4-yl)oxy)azetidin-1-yl)methanone] | 0.1 to 100 nM |
| Cn1ccc(-c2ncc(F)c(OC3CN(C(=O)N4N=CC[C@H]4c4cc(F)cc(F)c4)C3)n2)n1 [compound 39, (S)-(5-(3,5-difluorophenyl)-4,5-dihydro-1H-pyrazol-1-yl)(3-((5-fluoro-2-(1-methyl-1H-pyrazol-3-yl)pyrimidin-4-yl)oxy)azetidin-1-yl)methanone] | 100 to 1000 nM |

Source: US12655125B2 (SIRONAX LTD., priority 2020, dated 2026)
